Reference: paper PMC6832239, “The Effects of a Novel Series of KTTKS Analogues on Cytotoxicity and Proteolytic Activity” (Molecules, 2019)
Where two headings read alike, the source gives them in different places. Residues, ends and D or L forms follow the SMILES beside them.

Experiments:
plasmin = target: T1, plasmin (Homo sapiens, UniProt P00747); test: Amidolytic activity of plasmin (chromogenic substrate H-D-Val-Leu-Lys-pNA); format: biochemical
T1 construct: purchased Chromogenix (Milano, Italy)
Description: (§1) The determination of amidolytic activity was performed as previously described by Okada. A detailed description of the method is given below: 0.2 mL of the examined peptides (0.15 M NaCl as contro), a buffer, and 0.1 mL of enzyme solution were mixed. The final peptide concentrations were: 0.2 mM, 2 mM, and 20 mM. The mixture was incubated at 37 °C for 3 min; then the synthetic substrate solution was added in the same buffer. After 20 min of incubation, the reaction was stopped by adding 0.1 mL of 50% acetic acid and the absorbance of the released p-nitroaniline was measured at 405 nm. The mean values from three independent experiments done in duplicate are presented. A method error of 5% was adopted as statistical error. IC50 value was considered as the concentration of inhibitor that reduces absorbance by 50%, compared with absorbance measured under the same conditions without an inhibitor. IC50 was calculated mathematically by extrapolation using a linear plot. IC50 values are presented in Table 1 and Table 2, and graphically in Figure 1.
(§2) The buffers and the enzyme solutions included: • Tris buffer—0.6 mL (pH 8.8), enzyme: urokinase (50 units/mL), synthetic substrate: pyro-Glu-Gly-Arg-pNA·HCl (0.1 mL, 3 mM); • Tris buffer—0.5 mL (pH 8.4), enzyme: thrombin (1 units/mL), synthetic substrate: H-D-Phe-Pip-Arg-pNA (0.2 mL, 0.75 mM); • Tris buffer—0.5 mL (pH 7.4), enzyme: plasmin (0.4 units/mL), synthetic substrate: H-D-Val-Leu-Lys-pNA (0.2 mL, 3 mM); • Borate buffer—0.5 mL (pH 7.5), enzyme: trypsin (0.4 units/mL), synthetic substrate: Bzl-L-Arg-pNA·HCl (0.2 mL, 8 mM); • Tris buffer—0.6 mL (pH 9.0), enzyme: kallikrein (3 units/mL), synthetic substrate: H-D-Val-Leu-Arg-pNA·2HCl (0.1 mL, 75 mM); • Tris buffer—0.6 mL (pH 8.4), enzyme: t-PA ([…]), synthetic substrate: H-D-Ile-Pro-Arg-pNA (0.1 mL, 10 mM) • Tris buffer—0.6 mL (pH 9.0), enzyme: chymotrypsin (0.4 units/mL), synthetic substrate: Suc-Phe-pNA (0.2 mL, 8 mM)

urokinase = target: T2, urokinase (Homo sapiens, UniProt P00749); test: Amidolytic activity of urokinase (chromogenic substrate pyro-Glu-Gly-Arg-pNA); format: biochemical
T2 construct: purchased Sigma (Schnelldorf, Germany)
Description: as §1, §2

[1] = Viability of fibroblast cells, MTT assay; format: cell-based, Human; conditions: human, primary dermal fibroblast cells, 24 h, MTT, ± 2, read-out: Viability of fibroblast cells
Description: Viability of fibroblast cells was examined with the use of the MTT assay. MTT, a yellow tetrazole, is reduced to purple formazan only in living cells. Absorbance of the coloured solution was measured by a spectrophotometer.
These studies were performed on primary dermal fibroblasts cells. The cells were maintained in DMEM supplemented with 10% fetal bovine serum (FBS), 2 mM glutamin, 50 U/mL penicillin and […] streptomycin at 37 °C in a 5% CO2 incubator. For experiments, cells cultures were plated at a density of 1 × 10^6/well in six-well culture plates (Costar, St. Louis, MO, USA) in 2 mL of growth medium. Cells reached about 80% of confluency at day 2 were used for the assays.
Toxicity of the tested substances was determined using an MTT [3-(4,5-dimethylthiazol-2-yl)-2,5-diphenyltetrazolium bromide)] assay. Palmitoyl and lipoyl peptides were dissolved in DMSO (dimethyl sulfoxide), the other peptides in DMEM, and added to the cell culture medium. Simultaneously, the same concentrations of DMSO without peptides were added to cells, serving as controls. The final peptide concentrations were: 1 μM, 10 μM, and 100 μM. After 24 h incubation, the cells cultured with the tested compounds were washed with phosphate-buffered saline (PBS) and then incubated for 4 h in 2 mL of MTT solution (5 mg/mL). After removing the medium, the cells were lysed in 200 μL of DMSO with 20 μL of Sorensen’s buffer (pH 10.5, 0.1 mol/L glycine with 0.1 mol/L NaCl). The absorbance of converted dye in living cells was measured at a wavelength of 570 nm. The mean values ± SD from three independent experiments done in duplicate are presented.

thrombin = target: T3, thrombin (Bos taurus, UniProt P00735); test: Amidolytic activity of thrombin (chromogenic substrate H-D-Phe-Pip-Arg-pNA); format: biochemical; conditions: amidolytic activity; Tris pH 8.4, 37 °C; IC50 by extrapolation using a linear plot; error 5%; read-out: IC50 Thrombin
T3 construct: purchased Lubelska Wytwórnia Szczepionek (Lublin, Poland)
Description: The determination of amidolytic activity was performed as previously described by Okada. A detailed description of the method is given below: 0.2 mL of the examined peptides (0.15 M NaCl as contro), a buffer, and 0.1 mL of enzyme solution were mixed. The final peptide concentrations were: 0.2 mM, 2 mM, and 20 mM. The mixture was incubated at 37 °C for 3 min; then the synthetic substrate solution was added in the same buffer. […] The mean values from three independent experiments done in duplicate are presented. A method error of 5% was adopted as statistical error. […] IC50 was calculated mathematically by extrapolation using a linear plot.

[2] = amidolytic activity, Tris pH 8.8, 37 °C, IC50 by extrapolation using a linear plot, error 5%, read-out: IC50 Urokinase
[3] = amidolytic activity, Tris pH 7.4, 37 °C, IC50 by extrapolation using a linear plot, error 5%, read-out: IC50 Plasmin

T1 sequence (P00747 581-810 limits assumed): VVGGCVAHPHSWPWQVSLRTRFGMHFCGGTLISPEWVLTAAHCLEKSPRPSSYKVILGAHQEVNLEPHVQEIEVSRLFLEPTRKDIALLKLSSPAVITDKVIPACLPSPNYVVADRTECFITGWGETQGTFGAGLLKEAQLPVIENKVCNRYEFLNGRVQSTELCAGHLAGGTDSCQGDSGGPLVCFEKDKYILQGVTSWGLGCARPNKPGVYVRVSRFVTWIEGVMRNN
T1 sequence (P00747 97-580 partner limits assumed): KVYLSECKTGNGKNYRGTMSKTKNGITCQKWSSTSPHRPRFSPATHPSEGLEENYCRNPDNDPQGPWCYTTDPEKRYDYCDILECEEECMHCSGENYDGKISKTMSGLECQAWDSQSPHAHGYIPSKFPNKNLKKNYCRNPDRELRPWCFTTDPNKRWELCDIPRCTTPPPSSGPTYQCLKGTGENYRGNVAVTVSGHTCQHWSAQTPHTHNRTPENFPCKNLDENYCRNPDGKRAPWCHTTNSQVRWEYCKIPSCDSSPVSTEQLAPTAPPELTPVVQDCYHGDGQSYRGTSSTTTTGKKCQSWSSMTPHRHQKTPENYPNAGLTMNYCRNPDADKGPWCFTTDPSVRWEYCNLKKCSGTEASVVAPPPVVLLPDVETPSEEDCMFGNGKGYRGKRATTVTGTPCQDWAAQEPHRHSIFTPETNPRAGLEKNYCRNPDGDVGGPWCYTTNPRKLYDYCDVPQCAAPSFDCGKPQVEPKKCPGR

Molecule	IC50 (plasmin; amidolytic activity, palmitic peptides, read-out: IC50 plasmin (text, micromolar))	IC50 (urokinase; [2])	viability at 24 h, 1 µmol/L [1]	viability at 24 h, 10 µmol/L [1]	viability at 24 h, 100 µmol/L [1]	IC50 (urokinase)	IC50 (plasmin; [3])	IC50 (thrombin)	IC50 (plasmin; converted from IC50 of Table 1, read-out: -logIC50 Plasmin (converted))
CCCCCCCCCCCCCCCC(=O)N[C@@H](CCCCN)C(=O)N[C@H](C(=O)N[C@H](C(=O)N[C@@H](CCCCN)C(=O)N[C@@H](CO)C(N)=O)[C@@H](C)O)[C@@H](C)O [Peptide 8, Pal-Lys-Thr-Thr-Lys-Ser-NH2] (HELM PEPTIDE1{[CCCCCCCCCCCCCCCC(=O)[*:2]].K.T.T.K.S.[am]}$$$$V2.0)	< 200 µM	3120 ± 160 µM	96%	83%	83%	–	–	–	–
CCCCCCCCCCCCCCCC(=O)N[C@@H](CCCCN)C(=O)N[C@H](C(=O)N[C@H](C(=O)N[C@@H](CCCNC(=N)N)C(=O)N[C@@H](CO)C(=O)O)[C@@H](C)O)[C@@H](C)O [Peptide 12, Pal-Lys-Thr-Thr-Arg-Ser-OH] (HELM PEPTIDE1{[CCCCCCCCCCCCCCCC(=O)[*:2]].K.T.T.R.S}$$$$V2.0)	–	–	103%	98%	99%	–	–	–	–
CCCCCCCCCCCCCCCC(=O)N[C@@H](CCCCN)C(=O)N[C@H](C(=O)N[C@H](C(=O)N[C@@H](CCCNC(=N)N)C(=O)N[C@@H](CO)C(N)=O)[C@@H](C)O)[C@@H](C)O [Peptide 16, Pal-Lys-Thr-Thr-Arg-Ser-NH2] (HELM PEPTIDE1{[CCCCCCCCCCCCCCCC(=O)[*:2]].K.T.T.R.S.[am]}$$$$V2.0)	–	–	104%	114%	115%	2370 ± 120 µM	–	–	–
CCCCCCCCCCCCCCCC(=O)N[C@@H](CCCNC(=N)N)C(=O)N[C@H](C(=O)N[C@H](C(=O)N[C@@H](CCCNC(=N)N)C(=O)N[C@@H](CO)C(N)=O)[C@@H](C)O)[C@@H](C)O [Peptide 24, Pal-Arg-Thr-Thr-Arg-Ser-NH2] (HELM PEPTIDE1{[CCCCCCCCCCCCCCCC(=O)[*:2]].R.T.T.R.S.[am]}$$$$V2.0)	–	260 ± 13 µM	94%	104%	97%	–	–	–	–
CCCCCCCCCCCCCCCC(=O)N[C@@H](CCCNC(=N)N)C(=O)N[C@H](C(=O)N[C@H](C(=O)N[C@@H](CCCCN)C(=O)N[C@@H](CO)C(N)=O)[C@@H](C)O)[C@@H](C)O [Peptide 32, Pal-Arg-Thr-Thr-Lys-Ser- NH2] (HELM PEPTIDE1{[CCCCCCCCCCCCCCCC(=O)[*:2]].R.T.T.K.S.[am]}$$$$V2.0)	–	–	104%	113%	118%	–	–	–	–
H-KTTRS-OH [Peptide 9, H-Lys-Thr-Thr-Arg-Ser-OH]	–	–	93%	103%	101%	–	630 ± 31 µM	4010 ± 200 µM	–
H-RTTRS-OH [Peptide 17, H-Arg-Thr-Thr-Arg-Ser-OH]	–	–	89%	99%	115%	–	280 ± 14 µM	3890 ± 190 µM	288 µM
